Assay results: US8921323B2, “Methods and compositions for modulating BCL-2 family polypeptides” (Dana Farber Cancer Institute, Inc., priority 2007, dated 2014)
Ends that are not written are not given here.

Tests used:
[1] = system: Pfeiffer lymphoma cell line which overexpresses MCL-1 and A1; test: killing of Pfeiffer lymphoma cell line; assay type: cell-based
[2] = system: Bax−/−Bak−/− mouse embryo fibroblasts reconstituted with BAXK21E; test: apoptosis of BAXK21E-reconstituted DKO MEFs (annexin-V binding); assay type: cell-based; settings: compared with wild-type BAX
From the text: (§1) To determine if this single point mutation within the novel BAX binding site impacted the capacity to activate BAX in a cellular context, we retrovirally reconstituted Bax^−/−Bak^−/− mouse embryo fibroblasts (DKO MEFs) with either wild type or BAXK21E and monitored apoptosis induction in response to BIM SAHB. […] This decrease in BAXK21E-mediated apoptosis correlates with impaired activation of […] by BIM SAHB in both oligomerization and cytochrome c release assays (FIG. 15a, 15b).
To probe the broader physiologic impact of the novel BAX activation site, we examined the apoptotic response of DKO MEFs reconstituted with BAX and BAXK21E to staurosporine (STS), a general stimulus known to operate through endogenous BH3-only proteins, including BIM. K21E mutagenesis impaired STS-induced apoptosis, as monitored by annexin V binding over time (FIG. 15d). The reduced activity of BAXK21E was also reflected by impaired cytochrome c release, as detected by subcellular fractionation Western analysis and indirect immunofluorescence. The blunted response of BAXK21E-reconstituted DKO MEFs to STS is uniformly consistent with impaired activation of BAXK21E by BIM SAHB in oligomerization (FIG. 15a), cytochrome c release (FIG. 15b), and cell-based apoptosis assays (FIG. 15c). […]

[3] = system: MCL-1 overexpressing or otherwise chemoresistant cancer cells; test: reactivating apoptosis of MCL-1 overexpressing or chemoresistant cancer cells; assay type: cell-based
From the text: Many cancer cells and their relapsed/chemoresistant variants achieve cellular immortality by massively overexpressing anti-apoptotic members of the BCL-2 family. Using BH3 mimetics and small molecules, anti-apoptotic inhibition is one mode of overcoming apoptotic blockade. However, when BH3 mimetics or small molecules have a specificity profile that cannot target a specific anti-apoptotic blockade, such as MCL-1 overexpression (Van Delft et al, Cancer Cell. 2006 Nov.; 10(5):389-99; Konopleva et al, Cancer Cell. 2006 Nov.; 10(5):375-88; Deng et al Cancer Cell. 2007 Aug.; 12(2):171-85), direct BAX modulation can circumvent, or synergize with, such apoptotic blockade for therapeutic benefit. […] Therefore, cancers or other diseased cells that either overexpress anti-apoptotic proteins such as MCL-1 and A1, or cancers or diseased cells that specifically down-regulate activator BH3-only proteins, like BIM, such as in Mantle Cell lymphoma (Tagawa et al Oncogene. 2005 Feb. 17; 24(8):1348-58; Mestre-Escorihuela, Blood. 2007 Jan. 1; 109(1):271-80) and cf. with mouse model of BIM-deletion, are ideally suited for BIM SAHB, or derivatives and mimetics thereof, to reactivate apoptosis through direct engagement of the novel BAX activation site and thereby induce apoptosis for therapeutic purposes and irrespective of the aforementioned apoptotic blockades.

[4] = molecular target: T1, BCL-2-related ovarian killer (BOK) (Homo sapiens, UniProt Q9UMX3); test: binding of SAHB ligands to BOK
T1 sequence (Q9UMX3 1-212): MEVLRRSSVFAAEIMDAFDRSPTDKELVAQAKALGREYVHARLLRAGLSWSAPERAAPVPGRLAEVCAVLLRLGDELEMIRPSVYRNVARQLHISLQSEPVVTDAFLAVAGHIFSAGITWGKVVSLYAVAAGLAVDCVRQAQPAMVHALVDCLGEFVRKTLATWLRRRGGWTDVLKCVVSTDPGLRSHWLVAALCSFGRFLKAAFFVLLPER

[5] = system: Bax−/−Bak−/− mouse embryo fibroblasts reconstituted with wild type BAX; test: apoptosis of BAX-reconstituted DKO MEFs (annexin-V binding); assay type: cell-based
From the text: as §1

monomeric BAX = monomeric BAX (Homo sapiens, UniProt Q07812); test: BAX oligomerization assay (size exclusion chromatography); assay type: biochemical; settings: wild-type BAX, room temperature
Chain of monomeric BAX (Q07812 whole entry): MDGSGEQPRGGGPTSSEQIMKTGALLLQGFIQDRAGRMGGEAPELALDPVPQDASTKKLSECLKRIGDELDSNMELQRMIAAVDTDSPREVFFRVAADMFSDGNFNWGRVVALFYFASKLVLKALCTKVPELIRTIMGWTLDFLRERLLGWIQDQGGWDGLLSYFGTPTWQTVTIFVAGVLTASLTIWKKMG
From the text: In contrast to the stable inhibitory interactions of BIM BH3 with anti-apoptotic proteins, the BAX-activating interaction triggers a dynamic continuum of events that includes BAX conformational change and oligomerization. […] In monomeric BAX, the center of the loop weakly associates with residues Ile133 and Met 137 of the α6 helix (Suzuki & Tjandra, Cell 103 (4), 645-654 (2000)). Changes observed in the loop residues can readily be explained by the shift of the loop conformation into an open form upon BIM SAHB binding. Because loop displacement upon ligand engagement may initiate a conformational change of BAX, we investigated whether BIM SAHB binding could directly activate BAX in solution. We monitored both the conversion of BAX from monomer to oligomer by size-exclusion chromatography (SEC) and the exposure of its buried N-terminal residues using the 6A7 antibody, which selectively detects the conformational change associated with BAX activation (Hsu & Youle, The Journal of biological chemistry 272 (21), 13829-13834 (1997)). […] Thus, the transient stability of the BIM SAHB-BAX complex we observe by NMR correlates with the interaction-triggered BAX conformational change and oligomerization that we detect biochemically.
Oligomerization assay: BIM SAHB was added to a 200 μL solution (20 mM Hepes/KOH pH 7.2-7.4, 150 mM KCl) containing monomeric BAX (38 μM) at a ratio of 0.5:1, 1:1, 2:1 and 4:1 BIM SAHB:BAX. The mixtures and a sample of BAX monomer alone were incubated at 22° for 15 minutes and then subjected to analysis by size exclusion chromatography (SEC) using an SD75 column. […] Protein standards (GE Healthcare) were used to calibrate the molecular weights of gel filtration peaks. For time-dependent analysis, BIM SAHB was added to monomeric BAX at a ratio of 1:1, and the mixtures were analyzed by SEC after incubation for 30, 60, and 90 minutes at 22° C. As a baseline for comparison, Bax monomer alone was analyzed at time 0 and the above time points.

BAX = BAX (Homo sapiens, UniProt Q07812); test: liposomal release assay (FITC-dextran); assay type: biochemical; settings: combination with BAX
Chain of BAX (Q07812 whole entry): as above
From the text: (§2) To confirm that the SEC-based detection of BIM SAHB-induced BAX oligomerization reflects functional activation of BAX for its release activity, we performed correlative liposomal and mitochondrial assays. […] Thus, in four distinct in vitro assays that measure ligand-induced BAX activation, BIM SAHB directly and dose-responsively triggered BAX.
Liposomal Release Assay: Another assay that can be used to determine modulation of the BCL-2 family polypeptide is a liposomal release assay that simulates the mitochondria but only includes the essential components for BAX/BAK/BOK-induced release. […] Lipid concentration is determined by measuring vesicular phosphate content (Böttcher, C. J. F. et al. (1961) Anal Chim Acta 24, 203-204). The fluorescence dequenching assay is adapted from previous reports (Kuwana, T. et al. (2002) Cell 111(3), 331-342) (Terrones, O., et al. (2004) J Biol Chem 279(29), 30081-30091). The release of FITC-labeled dextran-10 kD from LUVs is monitored using a FluoroMax-2 spectrofluorometer (SPEX), in a thermostated 1 cm path length quartz cuvette with constant stirring at 37° C. […]

[6] = system: BAX-mediated cytochrome c release, BAX/BAK doubly-deficient mouse liver mitochondria; test: mitochondrial cytochrome c release assay; assay type: biochemical; settings: Alb-cre pos Bax flox/− Bak−/− mouse liver mitochondria plus BAX
From the text: as §2
Mitochondrial Release Assay: In order to test activation/inhibition of a BCL-2 family polypeptide interactions on mitochondrial apoptosis induction, a cytochrome c release assay is used that employs mouse liver mitochondria from Bak^−/− mice or Alb-cre^posBax^flox/−Bak^−/− mice, added recombinant BCL-2 family polypeptide, e.g., BAX, BAK, or BOK (50 nM) with or without increasing doses of SAHBs (50-500 nM), and an ELISA-based read-out of cytochrome c. Negative controls include recombinant protein alone, compounds alone, vehicle treatment, point mutant SAHBs, and blockade using anti-apoptotic proteins, such as BCL-XL ΔC.

| Molecule | apoptosis induction, annexin-V binding [2] | BAX oligomerization (monomer to oligomer, SEC) (monomeric BAX) | BAX-mediated cytochrome c release [6] | further results |
| --- | --- | --- | --- | --- |
| CN(C)CC[C@H](CSc1ccccc1)Nc1ccc(S(=O)(=O)NC(=O)c2ccc(N3CCN(Cc4ccccc4-c4ccc(Cl)cc4)CC3)cc2)cc1[N+](=O)[O-] [ABT-737, reference compound] |  |  |  | cell killing / sensitivity [1]: resistant |
| CN[C@@H]1C[C@H]2O[C@@](C)([C@@H]1OC)n1c3ccccc3c3c4c(c5c6ccccc6n2c5c31)C(=O)NC4 [staurosporine, reference compound] | impaired |  |  |  |
| BID SAHB: hydrocarbon-stapled BID BH3 polypeptide (FIG. 9, SEQ ID NO:4) (ESQEDIIRNIARHLAQVGDEMDRSI; staple (positions not given here); also: hydrocarbon staple, positions not given here; listed as Homo sapiens) |  |  |  | potency in reactivating apoptosis relative to ABT-737 or BAD SAHB [3]: more potent; binding to BOK [4]: bound |
| BIM SAHB R153D: BIM SAHB with reverse-polarity point mutation R153D at the BAX interaction surface (FIG. 13a) (EIWIAQELDRIGDEFNAYYARR; staple (positions not given here); also: hydrocarbon staple, positions not given here) | abolished | abrogated | abrogated | apoptosis induction, annexin-V binding [5]: abolished; liposomal release of entrapped FITC-dextran (BAX): abrogation of activity |
| D157R: BIM SAHB with reverse-polarity point mutation D157R (FIG. 13a) (EIWIAQELRRIGREFNAYYARR; staple (positions not given here); also: hydrocarbon staple, positions not given here) |  | abrogated | abrogated |  |
| I155E: BIM SAHB with hydrophobic to charged point mutation I155E (FIG. 13a) (EIWIAQELRREGDEFNAYYARR; staple (positions not given here); also: hydrocarbon staple, positions not given here) |  | abrogated | abrogated |  |
